Tests used:
[1] = molecular target: Histone acetyltransferase KAT6A (UniProt Q92794); test: Kat6a Activity Assay
Experimental: Recombinant human His-tagged Kat6a protein (amino acids 194-810), was purified in-house from Baculovirus-infected insect cells (Sf9). Histone H4 peptide (amino acids 1-24, […]-VLRD-K(Btn)-amide), which was used as substrate, was synthesized by Biosyntan GmbH, Berlin, Germany. Acetyl Coenzyme A was purchased from Sigma-Aldrich (#A-2056).Kat6a was incubated for 60 mins at 22° C. in the presence of different concentrations of test substances (0 μM, and within the range 0.01-20 μM) in assay buffer [25 mM Tris/HCl pH 8, 1 mM EGTA, 2.5 mM Glutathion, 0.02% Chicken Albumin, 0.05% Pluronic F127, 25 mM NaCl, 220 nM H4 peptide and 600 nM Acetyl Coenzym A].The reaction was stopped by addition of Detection Solution (25 mM HEPES pH 7.5, 0.1% BSA, 22 nM SAXL665 (Cisbio #610SAXLE), 100 μM Anacardic Acid (Enzo #ALX-270-381), 1 nM Anti-Histone H4 (ACETYL K8) Antibody (ABCAM #AB15823) and 0.5 nM Anti-Rabbit IgG Eu (Perkin Elmer #AD0083).

[2] = molecular target: T1, Histone acetyltransferase KAT6B [431-2073] (Homo sapiens (Human), UniProt Q8WYB5); test: Kat6b Activity Assay
T1 construct: 431-2073
T1 sequence (Q8WYB5 431-2073): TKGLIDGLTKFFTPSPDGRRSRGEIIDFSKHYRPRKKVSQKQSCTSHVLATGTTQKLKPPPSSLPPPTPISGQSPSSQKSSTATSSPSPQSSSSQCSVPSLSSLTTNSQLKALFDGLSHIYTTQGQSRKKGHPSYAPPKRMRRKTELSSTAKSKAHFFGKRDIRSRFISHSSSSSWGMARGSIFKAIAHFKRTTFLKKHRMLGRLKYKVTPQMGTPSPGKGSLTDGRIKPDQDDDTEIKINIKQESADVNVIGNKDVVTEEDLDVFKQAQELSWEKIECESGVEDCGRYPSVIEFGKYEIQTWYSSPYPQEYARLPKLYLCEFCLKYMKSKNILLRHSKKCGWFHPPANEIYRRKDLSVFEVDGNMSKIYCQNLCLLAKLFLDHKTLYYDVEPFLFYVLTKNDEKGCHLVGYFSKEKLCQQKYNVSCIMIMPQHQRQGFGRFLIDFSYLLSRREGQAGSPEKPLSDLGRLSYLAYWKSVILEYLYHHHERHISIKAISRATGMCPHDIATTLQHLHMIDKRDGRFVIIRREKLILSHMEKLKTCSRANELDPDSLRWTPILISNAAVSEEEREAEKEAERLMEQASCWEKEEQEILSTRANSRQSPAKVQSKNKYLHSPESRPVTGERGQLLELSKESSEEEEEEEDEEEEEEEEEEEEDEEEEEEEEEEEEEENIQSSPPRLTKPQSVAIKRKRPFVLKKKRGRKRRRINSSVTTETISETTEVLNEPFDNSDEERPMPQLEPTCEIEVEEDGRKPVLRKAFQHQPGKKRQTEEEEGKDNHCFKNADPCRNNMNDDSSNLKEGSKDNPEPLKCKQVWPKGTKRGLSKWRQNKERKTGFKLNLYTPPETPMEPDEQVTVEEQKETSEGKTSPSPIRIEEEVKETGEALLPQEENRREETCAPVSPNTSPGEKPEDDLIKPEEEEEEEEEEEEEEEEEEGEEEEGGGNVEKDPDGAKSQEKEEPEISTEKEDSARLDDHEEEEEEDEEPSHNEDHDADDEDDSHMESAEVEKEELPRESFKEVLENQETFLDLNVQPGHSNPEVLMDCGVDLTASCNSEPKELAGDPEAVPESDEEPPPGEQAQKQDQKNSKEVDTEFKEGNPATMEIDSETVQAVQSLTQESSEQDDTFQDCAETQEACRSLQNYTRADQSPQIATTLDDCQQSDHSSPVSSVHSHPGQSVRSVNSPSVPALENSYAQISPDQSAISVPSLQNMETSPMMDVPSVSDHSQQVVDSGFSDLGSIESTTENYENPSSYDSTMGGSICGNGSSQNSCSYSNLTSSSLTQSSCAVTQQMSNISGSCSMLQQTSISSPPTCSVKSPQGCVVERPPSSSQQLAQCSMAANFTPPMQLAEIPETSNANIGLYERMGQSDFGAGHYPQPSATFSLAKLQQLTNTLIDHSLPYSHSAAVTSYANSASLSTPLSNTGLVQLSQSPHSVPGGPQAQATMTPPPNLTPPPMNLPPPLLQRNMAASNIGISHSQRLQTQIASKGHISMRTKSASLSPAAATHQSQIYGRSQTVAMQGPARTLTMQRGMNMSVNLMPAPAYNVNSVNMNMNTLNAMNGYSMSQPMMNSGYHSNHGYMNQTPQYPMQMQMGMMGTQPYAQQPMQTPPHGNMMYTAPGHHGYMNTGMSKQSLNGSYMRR

Sequence of Histone acetyltransferase KAT6A (Q92794 whole entry, the tested form may be a part): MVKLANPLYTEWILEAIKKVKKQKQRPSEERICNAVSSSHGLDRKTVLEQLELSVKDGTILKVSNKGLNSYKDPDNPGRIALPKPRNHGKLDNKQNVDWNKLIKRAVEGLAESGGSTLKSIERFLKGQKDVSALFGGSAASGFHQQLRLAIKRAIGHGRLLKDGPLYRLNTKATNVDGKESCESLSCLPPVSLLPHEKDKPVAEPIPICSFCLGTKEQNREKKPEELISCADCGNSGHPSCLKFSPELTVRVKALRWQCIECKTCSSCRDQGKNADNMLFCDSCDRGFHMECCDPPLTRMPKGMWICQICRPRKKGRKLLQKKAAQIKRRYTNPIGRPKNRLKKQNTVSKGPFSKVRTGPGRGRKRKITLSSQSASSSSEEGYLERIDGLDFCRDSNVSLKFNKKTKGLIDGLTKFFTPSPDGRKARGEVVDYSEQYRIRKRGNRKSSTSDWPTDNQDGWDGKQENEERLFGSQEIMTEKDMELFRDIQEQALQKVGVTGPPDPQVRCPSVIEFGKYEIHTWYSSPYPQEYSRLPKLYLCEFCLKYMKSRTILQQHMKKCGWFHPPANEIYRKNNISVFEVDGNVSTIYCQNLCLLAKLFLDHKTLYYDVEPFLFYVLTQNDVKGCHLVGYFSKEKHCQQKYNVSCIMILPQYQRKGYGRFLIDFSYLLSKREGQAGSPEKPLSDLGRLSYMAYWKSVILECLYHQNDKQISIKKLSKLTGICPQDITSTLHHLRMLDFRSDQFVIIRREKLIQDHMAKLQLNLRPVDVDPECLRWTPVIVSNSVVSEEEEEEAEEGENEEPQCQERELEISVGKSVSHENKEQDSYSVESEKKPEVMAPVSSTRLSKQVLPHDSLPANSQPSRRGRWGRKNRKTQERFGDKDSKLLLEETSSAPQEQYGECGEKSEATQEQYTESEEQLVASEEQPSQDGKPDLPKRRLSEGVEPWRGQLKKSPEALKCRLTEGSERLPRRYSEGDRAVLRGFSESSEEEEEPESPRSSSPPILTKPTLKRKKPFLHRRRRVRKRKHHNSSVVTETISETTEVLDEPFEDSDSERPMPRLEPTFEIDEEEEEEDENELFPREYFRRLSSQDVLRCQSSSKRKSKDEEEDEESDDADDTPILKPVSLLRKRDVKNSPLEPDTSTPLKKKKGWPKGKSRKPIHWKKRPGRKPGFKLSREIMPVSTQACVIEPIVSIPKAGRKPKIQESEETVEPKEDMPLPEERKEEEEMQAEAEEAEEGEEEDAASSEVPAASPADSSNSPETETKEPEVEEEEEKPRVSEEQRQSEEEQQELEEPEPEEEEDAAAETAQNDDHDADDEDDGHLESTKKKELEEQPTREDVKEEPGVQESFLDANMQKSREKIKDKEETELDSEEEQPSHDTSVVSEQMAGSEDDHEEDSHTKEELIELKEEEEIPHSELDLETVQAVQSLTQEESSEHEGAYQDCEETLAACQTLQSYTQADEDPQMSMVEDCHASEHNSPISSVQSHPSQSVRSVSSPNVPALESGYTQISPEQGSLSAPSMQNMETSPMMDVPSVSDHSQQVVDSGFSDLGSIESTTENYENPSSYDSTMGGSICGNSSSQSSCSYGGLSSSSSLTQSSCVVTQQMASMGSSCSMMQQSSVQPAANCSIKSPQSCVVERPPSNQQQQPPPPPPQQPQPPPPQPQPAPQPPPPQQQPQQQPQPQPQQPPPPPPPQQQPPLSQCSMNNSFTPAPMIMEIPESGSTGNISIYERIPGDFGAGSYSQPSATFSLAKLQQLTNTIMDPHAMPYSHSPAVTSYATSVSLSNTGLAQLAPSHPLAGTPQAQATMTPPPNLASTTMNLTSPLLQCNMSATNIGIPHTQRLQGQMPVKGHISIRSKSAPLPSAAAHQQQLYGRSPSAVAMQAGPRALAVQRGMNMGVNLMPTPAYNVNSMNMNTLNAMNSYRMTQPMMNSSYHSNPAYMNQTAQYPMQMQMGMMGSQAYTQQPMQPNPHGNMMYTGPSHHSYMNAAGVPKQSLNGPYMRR

SMILES | IC50 [1] | IC50 [2]
CCN(C)c1ccc2cc(C(=O)NS(=O)(=O)c3ccc(Cl)cc3Cl)oc2c1 [US12357603, Example 03] | 1.39 µM | 0.81 µM
CN(c1ccccc1)c1ccc2cc(C(=O)NS(=O)(=O)c3ccc(Cl)cc3Cl)oc2c1 [US12357603, Example 09] | 2.55 µM | 5.72 µM
CCCN(C)c1ccc2cc(C(=O)NS(=O)(=O)c3ccccc3-c3ccccc3)oc2c1 [US12357603, Example 37] |  | 1.06 µM
COCCN(C)c1ccc2cc(C(=O)NS(=O)(=O)c3ccccc3-c3ccccc3)oc2c1 [US12357603, Example 39] |  | 0.534 µM
CN(c1ccc2cc(C(=O)NS(=O)(=O)c3ccccc3-c3ccccc3)oc2c1)C1CCCC1 [US12357603, Example 46] | 3.65 µM | 0.112 µM
CN(C)c1ccc2cc(C(=O)NS(=O)(=O)c3ccccc3-c3ccc(CO)cc3)oc2c1 [US12357603, Example 51] | 0.0573 µM | 0.103 µM
CCCc1ccccc1S(=O)(=O)NC(=O)c1cc2ccc(N(C)C)cc2o1 [US12357603, Example 52] | 0.187 µM | 
O=C(NS(=O)(=O)c1ccccc1-c1ccccc1)c1cc2ccc(N3CCCC3=O)cc2o1 [US12357603, Example 62] | 13.5 µM | > 20 µM
CN(C)c1ccc2cc(C(=O)NS(=O)(=O)c3ccccc3-c3ccccc3)oc2c1C#N [US12357603, Example 64] | 14.3 µM | 
CN(C)c1ccc2cc(C(=O)NS(=O)(=O)c3c(Cl)cccc3Cl)oc2c1 [US12357603, Example 98] | 0.465 µM | 
CN(C)c1ccc2cc(C(=O)NS(=O)(=O)c3cc(Cl)cc4cccnc34)oc2c1 [US12357603, Example 124] | 0.0928 µM | 0.0522 µM
CN(C)c1c(Br)cc2cc(C(=O)NS(=O)(=O)c3ccccc3-c3ccccc3)oc2c1F [US12357603, Example 206] | 4.7 µM | 
CC(C)Oc1ccccc1S(=O)(=O)NC(=O)c1cc2cc(Br)c(N(C)C)cc2o1 [US12357603, Example 208] | 7.76 µM | 
Cc1ccc2cccc(S(=O)(=O)NC(=O)c3cc4cc(C#N)c(N(C)C)cc4o3)c2n1 [US12357603, Example 209] | 0.903 µM | 
CCOc1ccc(Br)cc1S(=O)(=O)NC(=O)c1cc2ccc(N(C)CCOC)cc2o1 [US12357603, Example 213] | 1.06 µM | 

From BindingDB's records for patent US12357603 (Bayer Aktiengesellschaft; The Broad Institute, Inc., 2025)
